The text below walks through data of US9108944B2, “Androgen receptor modulators and uses thereof” (ARAGON PHARMACEUTICALS, INC., priority 2010, dated 2015).

Experiment [1] deals with T1, AR-VP16 (Homo sapiens, UniProt P10275).
T1 sequence (P10275 560-920 limits assumed): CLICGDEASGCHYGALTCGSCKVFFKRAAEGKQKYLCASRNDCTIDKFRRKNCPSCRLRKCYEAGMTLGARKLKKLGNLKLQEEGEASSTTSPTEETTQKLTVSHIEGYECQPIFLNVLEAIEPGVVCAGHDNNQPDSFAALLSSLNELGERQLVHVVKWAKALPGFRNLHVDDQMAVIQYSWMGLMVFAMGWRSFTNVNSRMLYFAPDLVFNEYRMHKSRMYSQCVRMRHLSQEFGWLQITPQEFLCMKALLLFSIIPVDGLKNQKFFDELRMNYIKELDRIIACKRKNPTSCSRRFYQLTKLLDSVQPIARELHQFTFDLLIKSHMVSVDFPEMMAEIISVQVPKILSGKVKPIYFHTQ
Description: AR-VP16 DNA Binding Assay, agonist mode (HepG2 cells). Type of experiment: cell-based. The note with it: Emax >20x DMSO control = agonist.

Experiment [2] addresses T1, AR-VP16. Description: AR-VP16 DNA Binding Assay, antagonist mode (HepG2 cells, 0.1 nM R1881). Type of experiment: cell-based. In short, it runs like this: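 Transfected HepG2 cells expressing AR-VP16 received serially diluted compound in charcoal-stripped-serum RPMI the day after transfection, with 0.1 nM R1881 (final) added only for antagonist testing. After 48 h, cells were lysed for measurement.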

What is called IC50 is the concentration that inhibits the measured activity by half. Low readings indicate greater potency, high ones weaker potency. Turning to `N#Cc1ncc(N2C(=O)C3(CCC3)N(c3ccccc3F)C2=S)cc1C(F)(F)F` [Compound 26, 5-(5-(2-Fluorophenyl)-8-oxo-6-thioxo-5,7-diazaspiro[3.4]octan-7-yl)-3-(trifluoromethyl)picolinonitrile], in experiment [1], the “ARVP16 DNA Binding Assay (Agonist mode): Agonist?” value (“ARVP16 DNA Binding Assay” below) is recorded as “Yes (Agonist defined as a compound whose Emax in the ARVP16 DNA Binding Assay (Agonist mode) is >20x DMSO control)”. For the same compound, the IC50 in experiment [2] is below 1000 nM.

`N#Cc1ncc(N2C(=O)C3(CCC3)N(c3ccc(F)cc3O)C2=S)cc1C(F)(F)F` [Compound 38, 5-(5-(4-Fluoro-2-hydroxyphenyl)-8-oxo-6-thioxo-5,7-diazaspiro[3.4]octan-7-yl)-3-(trifluoromethyl)picolinonitrile]: in experiment [1], the “ARVP16 DNA Binding Assay” value was “No (Agonist defined as a compound whose Emax in the ARVP16 DNA Binding Assay (Agonist mode) is >20x DMSO control)”. Besides, the IC50 in experiment [2] is above 1000 nM.

Regarding `COCCOc1ccc(N2C(=S)N(c3cnc(C#N)c(C(F)(F)F)c3)C(=O)C23CCC3)cc1F` [Compound 131, 5-(5-(3-Fluoro-4-(2-methoxyethoxy)phenyl)-8-oxo-6-thioxo-5,7-diazaspiro[3.4]octan-7-yl)-3-(trifluoromethyl)picolinonitrile], the “ARVP16 DNA Binding Assay” value in experiment [1] is on record as “No (Agonist defined as a compound whose Emax in the ARVP16 DNA Binding Assay (Agonist mode) is >20x DMSO control)”. The compound further showed an IC50 in experiment [2] below 1000 nM.

In the case of `N#Cc1ncc(N2C(=O)C3(CCC3)N(c3ccc(OCCC[S+]([O-])CCCC(F)(F)C(F)(F)F)c(F)c3)C2=S)cc1C(F)(F)F` (centres unmarked) [Compound 154, 5-(5-(3-Fluoro-4-(3-((4,4,5,5,5-pentafluoropentyl)sulfinyl)propoxy)phenyl)-8-oxo-6-thioxo-5,7-diazaspiro[3.4]octan-7-yl)-3-(trifluoromethyl)picolinonitrile], the “ARVP16 DNA Binding Assay” value in experiment [1] is “No (Agonist defined as a compound whose Emax in the ARVP16 DNA Binding Assay (Agonist mode) is >20x DMSO control)”. In experiment [2], this compound displayed an IC50 below 1000 nM.

For the compound `N#Cc1ncc(N2C(=O)C3(CCC3)N(c3ccc(C(=O)NCCc4ccccn4)c(F)c3)C2=S)cc1C(F)(F)F` [Compound 236, 4-(7-(6-Cyano-5-(trifluoromethyl)pyridin-3-yl)-8-oxo-6-thioxo-5,7-diazaspiro[3.4]octan-5-yl)-2-fluoro-N-(2-(pyridin-2-yl)ethyl)benzamide], in experiment [1], the “ARVP16 DNA Binding Assay” value is listed as “No (Agonist defined as a compound whose Emax in the ARVP16 DNA Binding Assay (Agonist mode) is >20x DMSO control)”. The IC50 in experiment [2] is below 1000 nM.

With `N#Cc1ncc(N2C(=O)C3(CCC3)N(c3ccc(C(=O)NCCN4CCCC4)c(F)c3)C2=S)cc1C(F)(F)F` [Compound 234, 4-(7-(6-Cyano-5-(trifluoromethyl)pyridin-3-yl)-8-oxo-6-thioxo-5,7-diazaspiro[3.4]octan-5-yl)-2-fluoro-N-(2-(pyrrolidin-1-yl)ethyl)benzamide], in experiment [1], the “ARVP16 DNA Binding Assay” value is recorded as “No (Agonist defined as a compound whose Emax in the ARVP16 DNA Binding Assay (Agonist mode) is >20x DMSO control)”. The IC50 in experiment [2] was above 1000 nM.

As for `Cc1cc(N2C(=O)C3(CCC3)N(c3ccc(C(=O)NCC4CCOCC4)c(F)c3)C2=S)cnc1C#N` [Compound 311, 4-(7-(6-Cyano-5-methylpyridin-3-yl)-8-oxo-6-thioxo-5,7-diazaspiro[3.4]octan-5-yl)-2-fluoro-N-((tetrahydro-2H-pyran-4-yl)methyl)benzamide], in experiment [1], the “ARVP16 DNA Binding Assay” value is “No (Agonist defined as a compound whose Emax in the ARVP16 DNA Binding Assay (Agonist mode) is >20x DMSO control)”. The IC50 in experiment [2] is above 1000 nM.

`Cc1cc(N2C(=O)C3(CCC3)N(c3ccc(OC4CCN(C)CC4)c(F)c3)C2=S)cnc1C#N` [Compound 192, 5-(5-(3-Fluoro-4-((1-methylpiperidin-4-yl)oxy)phenyl)-8-oxo-6-thioxo-5,7-diazaspiro[3.4]octan-7-yl)-3-methylpicolinonitrile]: in experiment [1], the “ARVP16 DNA Binding Assay” value is on record as “No (Agonist defined as a compound whose Emax in the ARVP16 DNA Binding Assay (Agonist mode) is >20x DMSO control)”. Further, the IC50 in experiment [2] is above 1000 nM.

Regarding `N#Cc1ncc(N2C(=O)C3(CCC3)N(c3ccc(-c4ccncc4)cc3)C2=S)cc1C(F)(F)F` [Compound 18, 5-(8-Oxo-5-(4-(pyridin-4-yl)phenyl)-6-thioxo-5,7-diazaspiro[3.4]octan-7-yl)-3-(trifluoromethyl)picolinonitrile], the “ARVP16 DNA Binding Assay” value in experiment [1] is given as “Yes (Agonist defined as a compound whose Emax in the ARVP16 DNA Binding Assay (Agonist mode) is >20x DMSO control)”. The compound further had an IC50 in experiment [2] below 1000 nM.

With `Cc1ccncc1-c1ccc(N2C(=S)N(c3cnc(C#N)c(C)c3)C(=O)C23CCC3)cc1` [Compound 97, 3-Methyl-5-(5-(4-(4-methylpyridin-3-yl)phenyl)-8-oxo-6-thioxo-5,7-diazaspiro[3.4]octan-7-yl)picolinonitrile], the “ARVP16 DNA Binding Assay” value in experiment [1] is “Yes (Agonist defined as a compound whose Emax in the ARVP16 DNA Binding Assay (Agonist mode) is >20x DMSO control)”. Also, the IC50 in experiment [2] was below 1000 nM.

In the case of `Cc1cc(N2C(=O)C3(CCC3)N(c3ccc(OC4CCN(CCO)CC4)cc3)C2=S)cnc1C#N` [Compound 217, 5-(5-(4-((1-(2-Hydroxyethyl)piperidin-4-yl)oxy)phenyl)-8-oxo-6-thioxo-5,7-diazaspiro[3.4]octan-7-yl)-3-methylpicolinonitrile], the “ARVP16 DNA Binding Assay” value in experiment [1] was “No (Agonist defined as a compound whose Emax in the ARVP16 DNA Binding Assay (Agonist mode) is >20x DMSO control)”. In experiment [2], the IC50 is below 1000 nM.

For `O=C1N(c2ccc3nnc(C(F)(F)F)n3n2)C(=S)N(c2ccc(O)cc2)C12CCC2` [Compound 2, 5-(4-Hydroxyphenyl)-6-thioxo-7-(3-(trifluoromethyl)-[1,2,4]triazolo[4,3-b]pyridazin-6-yl)-5,7-diazaspiro[3.4]octan-8-one], in experiment [1], the “ARVP16 DNA Binding Assay” value is listed as “No (Agonist defined as a compound whose Emax in the ARVP16 DNA Binding Assay (Agonist mode) is >20x DMSO control)”. The compound also registered an IC50 in experiment [2] above 1000 nM.

On to `Cc1ccc(N2C(=S)N(c3cnc(C#N)c(C(F)(F)F)c3)C(=O)C23CCC3)c(F)c1` [Compound 50, 5-(5-(2-Fluoro-4-methylphenyl)-8-oxo-6-thioxo-5,7-diazaspiro[3.4]octan-7-yl)-3-(trifluoromethyl)picolinonitrile], for which the “ARVP16 DNA Binding Assay” value in experiment [1] is “No (Agonist defined as a compound whose Emax in the ARVP16 DNA Binding Assay (Agonist mode) is >20x DMSO control)”. In addition, the IC50 in experiment [2] is below 1000 nM.

With `CNC(=O)c1ccc(N2C(=S)N(c3cnc(C#N)c(C)c3)C(=O)C23CCC3)cc1OC` [Compound 107, 4-(7-(6-Cyano-5-methylpyridin-3-yl)-8-oxo-6-thioxo-5,7-diazaspiro[3.4]octan-5-yl)-2-methoxy-N-methylbenzamide], in experiment [1], the “ARVP16 DNA Binding Assay” value is reported as “No (Agonist defined as a compound whose Emax in the ARVP16 DNA Binding Assay (Agonist mode) is >20x DMSO control)”. The same compound gave an IC50 in experiment [2] below 1000 nM.

With `Cc1ccc(N2C(=S)N(c3cnc(C#N)c(C(F)(F)F)c3)C(=O)C23CCC3)cc1` [Compound 22, 5-(8-Oxo-6-thioxo-5-(p-tolyl)-5,7-diazaspiro[3.4]octan-7-yl)-3-(trifluoromethyl)picolinonitrile], in experiment [1], the “ARVP16 DNA Binding Assay” value is “No (Agonist defined as a compound whose Emax in the ARVP16 DNA Binding Assay (Agonist mode) is >20x DMSO control)”. Further, the IC50 in experiment [2] is below 1000 nM.

`Cc1cc(N2C(=S)N(c3cnc(C#N)c(C)c3)C(=O)C23CCC3)ccc1C(N)=O` [Compound 233, 4-(7-(6-Cyano-5-methylpyridin-3-yl)-8-oxo-6-thioxo-5,7-diazaspiro[3.4]octan-5-yl)-2-methylbenzamide]: the “ARVP16 DNA Binding Assay” value in experiment [1] is listed as “No (Agonist defined as a compound whose Emax in the ARVP16 DNA Binding Assay (Agonist mode) is >20x DMSO control)”. In addition, in experiment [2], the IC50 is above 1000 nM.

For `CNC(=O)c1ccc(N2C(=S)N(c3cnc(C#N)c(C)c3)C(=O)C23CCC3)cc1` [Compound 78, 4-(7-(6-Cyano-5-methylpyridin-3-yl)-8-oxo-6-thioxo-5,7-diazaspiro[3.4]octan-5-yl)-N-methylbenzamide], the “ARVP16 DNA Binding Assay” value in experiment [1] is “No (Agonist defined as a compound whose Emax in the ARVP16 DNA Binding Assay (Agonist mode) is >20x DMSO control)”. The IC50 in experiment [2] was above 1000 nM.

Turning to `N#Cc1ncc(N2C(=O)C3(CCC3)N(c3ccc(C(=O)N4CCOCC4)c(F)c3)C2=S)cc1C(F)(F)F` [Compound 271, 5-(5-(3-Fluoro-4-(morpholine-4-carbonyl)phenyl)-8-oxo-6-thioxo-5,7-diazaspiro[3.4]octan-7-yl)-3-(trifluoromethyl)picolinonitrile], the “ARVP16 DNA Binding Assay” value in experiment [1] is recorded as “No (Agonist defined as a compound whose Emax in the ARVP16 DNA Binding Assay (Agonist mode) is >20x DMSO control)”. In addition, in experiment [2], the IC50 was above 1000 nM.

`CC(=O)N1CCC(Oc2ccc(N3C(=S)N(c4cnc(C#N)c(C)c4)C(=O)C34CCC4)cc2)CC1` [Compound 215, 5-(5-(4-((1-acetylpiperidin-4-yl)oxy)phenyl)-8-oxo-6-thioxo-5,7-diazaspiro[3.4]octan-7-yl)-3-methylpicolinonitrile]: the “ARVP16 DNA Binding Assay” value in experiment [1] is reported as “Yes (Agonist defined as a compound whose Emax in the ARVP16 DNA Binding Assay (Agonist mode) is >20x DMSO control)”. For the same compound, the IC50 in experiment [2] was below 1000 nM.
